The text below walks through data of patent US10662204B2 (PFIZER INC., priority 2018, dated 2020).

Broadly, the IC50 is the point on the concentration scale where inhibition reaches its midpoint. High values mean lower potency, low ones higher potency.

Experiment [1] addresses KRAS G12C (Homo sapiens, UniProt P01116, G12C). Briefly: Cell Activity Assay: accumulation of GDP-bound KRAS G12C in MIAPaCa-2 cells (Raf-1 RBD capture, MSD readout). More on the design: endogenous in cells; host or cells: MIAPaCa-2. Type of experiment: cell-based. As to conditions: 6 hours, assay limit is 30.00. The essentials:
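MIAPaCa-2 cells exposed 6 h at 37 °C to 3-fold compound dilutions (0.3% DMSO final), then lysed. Active GTP-KRAS captured on Raf-1 RBD-coated plates, detected with anti-pan-Ras and SULFO-TAG secondary by MSD electrochemiluminescence. Signal normalized to DMSO and maximum inhibition; IC50 from 4-parameter fit.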

Experiment [2] has as its target T1, GDP-loaded KRAS (1-169) G12C, C51S, C80L, C118S (Homo sapiens, UniProt P01116, C118S/C51S/C80L/G12C).
T1 construct: GDP-loaded KRAS (1-169) G12C, C51S, C80L, C118S
The experiment in a line: Mass Spectrometry Reactivity Assay (MSRA): covalent adduct of compound and KRAS G12C, Percent Modification. Type of experiment: binding. As to conditions: for MSRA (% modification) 10 μM 0.50 hr / MSRA (% modification) 10 μM 0.25 hr: 10 μM compound; for MSRA (% modification) 5.0 μM 0.017 hr / MSRA (% modification) 5.0 μM 0.25 hr: 5.0 μM compound. The essentials: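 GDP-loaded KRAS(1-169) G12C/C51S/C80L/C118S at 5 μM in 25 mM Hepes pH 7.5, 200 mM NaCl, 5% glycerol incubated at RT with compound (typically 5 or 10 μM final, 1% DMSO). Quenched in formic acid at 1-60 min; intact-protein LC-TOF MS gives % modification = modified/(modified+unmodified).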

As to `C=CC(=O)N1CCN(c2nc(NCC3CCC(=O)N3)nc3c(Oc4c(C)ccc5[nH]ncc45)cccc23)CC1` (stereo not shown) [Example 12F, 5-[({4-(4-acryloylpiperazin-1-yl)-8-[(5-methyl-1H-indazol-4-yl)oxy]quinazolin-2-yl}amino)methyl]pyrrolidin-2-one], in experiment [1], the IC50 was determined as 29.1 µM. The “MSRA (% modification) 10 μM 0.50 hr” value in experiment [2] is given as 20%.

Consider `C=CC(=O)N1CCN(c2nc(OC[C@]3(F)CCCN(C)C3)nc3c(Oc4c(Cl)c(F)cc5[nH]ncc45)nc(Cl)cc23)CC1` [Example 25G, 1-[4-(6-chloro-8-[(5-chloro-6-fluoro-1H-indazol-4-yl)oxy]-2-{[(3S)-3-fluoro-1-methylpiperidin-3-yl]methoxy}pyrido[3,4-d]pyrimidin-4-yl)piperazin-1-yl]prop-2-en-1-one], for which, in experiment [1], it took 0.009 µM to reach half-maximal inhibition (IC50). Also, the “MSRA (% modification) 5.0 μM 0.017 hr” value in experiment [2] worked out at 73%.

`C=CC(=O)N1CCN(c2nc(Oc3cccnc3CC)nc3c(Oc4c(Cl)c(F)cc5[nH]ncc45)nccc23)CC1` [Example 03I, 1-(4-{8-[(5-chloro-6-fluoro-1H-indazol-4-yl)oxy]-2-[(2-ethyl-pyridin-3-yl)oxy]pyrido[3,4-d]pyrimidin-4-yl}piperazin-1-yl)prop-2-en-1-one] registered an IC50 in experiment [1] of 0.06 µM. In addition, in experiment [2], the “MSRA (% modification) 5.0 μM 0.25 hr” value is on record as 52%.

In experiment [1], `C=CC(=O)N1CCN(c2ncnc3c(Oc4c(C)c(Cl)cc5[nH]ncc45)nccc23)C[C@@H]1C` [Example 23A, 1-[(2S)-4-{8-[(6-chloro-5-methyl-1H-indazol-4-yl)oxy]pyrido[3,4-d]pyrimidin-4-yl}-2-methylpiperazin-1-yl]prop-2-en-1-one] registered an IC50 of 11.6 µM. The “MSRA (% modification) 10 μM 0.50 hr” value in experiment [2] is listed as 20%.

In turn, `C=CC(=O)N1CCN(c2nc(OC[C@@H]3C[C@H](F)CN3C)nc3c(Oc4c(Cl)c(F)cc5[nH]ncc45)nccc23)CC1` [Example 11H, 1-[4-(8-[(5-chloro-6-fluoro-1H-indazol-4-yl)oxy]-2-{[(2S,4S)-4-fluoro-1-methylpyrrolidin-2-yl]methoxy}pyrido[3,4-d]pyrimidin-4-yl)piperazin-1-yl]prop-2-en-1-one] registered a half-maximal inhibitory concentration (IC50) in experiment [1] of 0.237 µM. Further, the “MSRA (% modification) 10 μM 0.25 hr” value in experiment [2] is given as 80%.

In experiment [1], `C=CC(=O)N1CCN(c2ncnc3c(Oc4c(Cl)ccc5[nH]ncc45)nc(C)cc23)CC1` [Example 05A, 1-(4-{8-[(5-chloro-1H-indazol-4-yl)oxy]-6-methylpyrido[3,4-d]pyrimidin-4-yl}piperazin-1-yl)prop-2-en-1-one] gave an IC50 of 8.41 µM. For the same compound, in experiment [2], the “MSRA (% modification) 10 μM 0.50 hr” value came to 12%.

Take `C=CC(=O)N1CCN(c2nc(OC[C@@H]3CCCN3C)nc3c(Oc4c(Cl)ccc5[nH]ncc45)cccc23)CC1` [Example 02L, 1-[4-(8-[(5-chloro-1H-indazol-4-yl)oxy]-2-{[(2S)-1-methylpyrrolidin-2-yl]methoxy}quinazolin-4-yl)piperazin-1-yl]prop-2-en-1-one]: half-maximal inhibition in experiment [1] (IC50) was put at 0.146 µM. The “MSRA (% modification) 5.0 μM 0.25 hr” value in experiment [2] amounted to 31%.

For `C=CC(=O)N1CCN(c2nc(OC[C@H]3CCC(=O)N3)nc3c(Oc4c(C)ccc5[nH]ncc45)cccc23)CC1` [Example 10F, (5R)-5-[({4-(4-acryloylpiperazin-1-yl)-8-[(5-methyl-1H-indazol-4-yl)oxy]quinazolin-2-yl}oxy)methyl]pyrrolidin-2-one], inhibition in experiment [1] was half-maximal at 6.07 µM (IC50). In experiment [2], the “MSRA (% modification) 10 μM 0.25 hr” value is reported as 53% and the “MSRA (% modification) 10 μM 0.50 hr” value was found to be 65%.

On to `C=CC(=O)N1CCN(c2nc(OC[C@@H]3C[C@H](OC)CN3C)nc3c(Oc4c(Cl)c(F)cc5[nH]ncc45)nccc23)CC1` [Example 12H, 1-[4-(8-[(5-chloro-6-fluoro-1H-indazol-4-yl)oxy]-2-{[(2S,4S)-4-methoxy-1-methylpyrrolidin-2-yl]methoxy}pyrido[3,4-d]pyrimidin-4-yl)piperazin-1-yl]prop-2-en-1-one], for which the concentration for half-maximal inhibition (IC50) in experiment [1] amounted to 0.691 µM. In experiment [2], the “MSRA (% modification) 5.0 μM 0.25 hr” value is listed as 49% and the “MSRA (% modification) 10 μM 0.25 hr” value stood at 67%.

With `C=CC(=O)N1CCN(c2nc(N3CC(N(C)C)C3)nc3c(Oc4c(C)ccc5[nH]ncc45)nc(C)cc23)[C@@H](C)C1` [Example 05B, 1-[(3S)-4-{2-[3-(dimethylamino)azetidin-1-yl]-6-methyl-8-[(5-methyl-1H-indazol-4-yl)oxy]pyrido[3,4-d]pyrimidin-4-yl}-3-methylpiperazin-1-yl]prop-2-en-1-one], the IC50 in experiment [1] was found to be 4.03 µM. In addition, in experiment [2], the “MSRA (% modification) 10 μM 0.50 hr” value is recorded as 15%.

In turn, `C=CC(=O)N1CCN(c2ncnc3c(Oc4c(CC)ccc5[nH]ncc45)nccc23)CC1` [Example 07A, 1-(4-{8-[(5-ethyl-1H-indazol-4-yl)oxy]pyrido[3,4-d]pyrimidin-4-yl}piperazin-1-yl)prop-2-en-1-one] gave an IC50 in experiment [1] of 7.15 µM. Besides, in experiment [2], the “MSRA (% modification) 10 μM 0.50 hr” value was determined as 16%.

In turn, `C=CC(=O)N1CCN(c2nc(O[C@@H]3CN(C)C[C@H]3OC)nc3c(Oc4c(C)c(Cl)cc5[nH]ncc45)nccc23)CC1` [Example 40I, 1-[4-(8-[(6-chloro-5-methyl-1H-indazol-4-yl)oxy]-2-{[(3R,4R)-4-methoxy-1-methyl-pyrrolidin-3-yl]oxy}pyrido [3,4-d]pyrimidin-4-yl)piperazin-1-yl]prop-2-en-1-one] came in with an IC50 in experiment [1] of 0.02 µM. The “MSRA (% modification) 5.0 μM 0.017 hr” value in experiment [2] is 68%.

In experiment [1], `C=CC(=O)N1CCN(c2ncnc3c(Oc4c(Cl)c(F)cc5[nH]ncc45)nc(Cl)cc23)[C@@H](CO)C1` [Example 38A, 1-[(3R)-4-{6-chloro-8-[(5-chloro-6-fluoro-1H-indazol-4-yl)oxy]pyrido[3,4-d]pyrimidin-4-yl}-3-(hydroxymethyl)piperazin-1-yl]prop-2-en-1-one] displayed an IC50 of 0.537 µM. In addition, in experiment [2], the “MSRA (% modification) 10 μM 0.25 hr” value turned out to be 56%.

Regarding `C=CC(=O)N1CCN(c2nc(OCC3CCOC3)nc3c(Oc4c(Cl)c(F)cc5[nH]ncc45)nc(Cl)cc23)CC1` (stereo not shown) [Example 12G, 1-(4-{6-chloro-8-[(5-chloro-6-fluoro-1H-indazol-4-yl)oxy]-2-(tetrahydrofuran-3-ylmethoxy)pyrido[3,4-d]pyrimidin-4-yl}piperazin-1-yl)prop-2-en-1-one], the IC50 in experiment [1] is 0.071 µM. Moreover, the “MSRA (% modification) 10 μM 0.25 hr” value in experiment [2] amounted to 75%.

As for `C=CC(=O)N1CCN(c2nc(OCC3(F)CCN(C)CC3)nc3c(Oc4c(Cl)c(F)cc5[nH]ncc45)nc(Cl)cc23)CC1` [Example 15G, 1-(4-{6-chloro-8-[(5-chloro-6-fluoro-1H-indazol-4-yl)oxy]-2-[(4-fluoro-1-methylpiperidin-4-yl)methoxy]pyrido[3,4-d]pyrimidin-4-yl}piperazin-1-yl)prop-2-en-1-one], the IC50 in experiment [1] was 0.019 µM. For the same compound, the “MSRA (% modification) 5.0 μM 0.25 hr” value in experiment [2] was 80%.

Consider `C=CC(=O)N1CCN(c2ncnc3c(Oc4c(Cl)c(C)cc5[nH]ncc45)nccc23)C[C@@H]1C` [Example 22A, 1-[(2S)-4-{8-[(5-chloro-6-methyl-1H-indazol-4-yl)oxy]pyrido[3,4-d]pyrimdin-4-yl}-2-methylpiperazin-1-yl]prop-2-en-1-one], for which the IC50 in experiment [1] worked out at 15.6 µM. For the same compound, the “MSRA (% modification) 10 μM 0.50 hr” value in experiment [2] worked out at 10%.
